According to patent US9617330B2, “Chemorepulsion of cells” (Celtaxsys, Inc., priority 2006, dated 2017):

Assays:
[1] = system: Monocytes; assay: High throughput transmigration assay (Example 9), chemorepulsion; assay type: cell-based, human; conditions: mean of three donors at concentration of highest activity, range 0.00125-1.25 μM
Text: (§1) An agent's repellent index is the ratio of chemorepulsion (CR) to spontaneous migration (SM) induced by the agent, i.e., [(CR)/(SM)]. […] For example, in calculating a RI for an agent, migratory responses including chemorepulsion (CR) and spontaneous migration (SM) may be measured over several decades or log scales of concentration. If, over any two consecutive measurements at concentrations which differ by at least 10 fold, the ratio of CR to SM at each of the two contiguous measurements is equal to or greater than 1.2, then the agent is considered a validated chemorepellent.
(§2) For primary human T cells, up to 80 ml of blood is drawn from a human donor in sodium heparin Vacutainer tubes (Becton-Dickinson). The blood (between 10 and 15 ml per tube) is then layered onto 30 ml of Lymphocyte Separation Medium (LSM) (Cellgro, Herndon, Va.) in a 50 ml conical centrifuge tube and centrifuged for 20 minutes at 2440×g in a swinging bucket rotor. After removing the majority of the plasma from the top of each tube, the peripheral blood mononucleocyte (PBMC) layer is removed and transferred to fresh 50 ml conical centrifuge tubes. The tubes are then filled to 50 ml with IMDM and centrifuged for 10 minutes at 500×g. All but approximately 5 ml of the supernatant is then removed and the pellet resuspended with 25 ml IMDM and the centrifugation repeated. After removal of the supernatant, the cells are resuspended and combined to one 50 ml tube (per subject) and brought to a total volume of 50 ml. The cells are then counted using a hemacytometer (Reichert). After centrifugation under the same conditions, the supernatant is removed and the cells processed using the appropriate Miltenyi Biotec (Auburn, Calif.) negative selection kit to enrich for the desired cell type according to manufacturers instructions. The resulting purified cells are then diluted to 50 ml with IMDM. After centrifugation at 500×g for 10 minutes, the supernatant is removed and the cells resuspended in 15 ml IMDM supplemented with 0.5% heat inactivated fetal calf serum (FCS) (ATCC, Manassas, Va.). After another centrifugation for 10 minutes at 500×g, the supernatant is again removed and the cells resuspended in 7 ml 0.5% FCS in IMDM (assay medium) and transferred to a 15 ml conical centrifuge tube. The cells are then quantitated using a hemacytometer. When enriching for monocytes, the concentration of cells is adjusted to 2×10^7 per ml by centrifugation and removal of the appropriate volume of assay medium. For all other cell types, the tube cap is replaced with one from a 25 cm^2 tissue culture flask (Corning) and the cells stored overnight in a humidified 37° C. incubator with 5% CO2. The concentration of the cells is adjusted as for monocytes just prior to transmigration assay of Example 9.
It is noted that this procedure may be used to isolate and/or purify monocytes. In the monocyte purification method, a further step is included for platelet removal via the use of CD61 microbeads also purchased from Miltenyi Biotec (Auburn, Calif.).
(§3) Migration away from a chemical or biological agent (chemorepulsion (CR)) was measured using ChemoTx plates (Neuroprobe). These plates contain a planar polycarbonate or polyester membrane that has been etched and perforated so that cells can move along the etched tracks and fall through perforation holes, enabling the cells to be collected and the number of migrated cells quantified (FIGS. 5-6). Several dilutions (normally 4 in 10-fold increments) are prepared of the agent of interest. For neutrophils, plates with 3 μm pore membranes are used, while for all other primary cell types, 5 μm pore membranes are used. Membranes may, or may not, be coated with polyvinylpyrrolidine (PVP) as a wetting agent.
For spontaneous migration controls and chemorepulsion (CR) assays, 31 μl of assay medium is pipetted into the lower well of the transmigration apparatus (FIGS. 5-6). […]

[2] = system: B cells; assay: as above; assay type: cell-based, human; design: key: ratio of chemorepulsion (CR) to spontaneous migration (SM), CR/SM; conditions: mean of three donors at concentration of highest activity
Text: as §1, §2, §3
(§4) For spontaneous migration controls and chemorepulsion (CR) assays, 31 μl of assay medium is pipetted into the lower well of the transmigration apparatus (FIGS. 5-6). For spontaneous migration controls and chemoattraction (CA) assays, 29 μl of assay medium is pipetted into upper chamber of the transmigration apparatus (FIG. 5). For CR, the upper well assay medium contains the agent or candidate chemorepellent. […]

[3] = system: CD4+; assay: as above; assay type: cell-based, human; conditions: mean of three donors at concentration of highest activity, range 0.00125-1.25 μM
Text: as §1, §2, §3, §4

[4] = system: Neutrophils; assay: as above; assay type: cell-based, human
[5] = system: Human primary neutrophils; assay: Trans-well migration assay (Example 3 method), unimodal fugetaxin test; assay type: cell-based; design: key to Unimodal fugetaxin hit, Neutrophils: A “+” in the Table indicates a positive hit as a unimodal fugetaxin, as that term is defined herein, for that particular cell type; conditions: for Unimodal fugetaxin hit, Neutrophils: human neutrophils, methods of Example 3
[6] = system: Human primary CD8+ lymphocytes; assay: as above; assay type: cell-based; design: key: A “+” in the Table indicates a positive hit as a unimodal fugetaxin, as that term is defined herein, for that particular cell type; conditions: methods of Example 3
[7] = system: Human primary CD4+ lymphocytes; assay: as above; assay type: cell-based; design: key: A “+” in the Table indicates a positive hit as a unimodal fugetaxin, as that term is defined herein, for that particular cell type; conditions: methods of Example 3
[8] = system: Eo-HL60 (HL-60 clone 15 differentiated to eosinophil-like phenotype); assay: Trans-well migration assay (Example 1), net migratory response; assay type: cell-based, human; conditions: net observed response
[9] = system: Monocyte; assay: as above; conditions: Monocyte; net observed response
Procedure: Prior to beginning the assay 0.5% Fetal Calf Serum (FCS) in Iscove's Modified Dulbecco's Medium (IMDM) is prepared and stored on ice (Assay Medium). Migratory cells at a concentration of 2×10^7 cells/ml are suspended in Assay Medium. T-cells isolated from donor blood or buffy coats are allowed to rest overnight in Assay Medium at 37° C. in 5% CO2. Neutrophils, monocytes and B cells are utilized as soon as they are purified from donor blood or other source of human origin. Four serial (10×) dilutions of the ligand are then prepared in Assay Medium (normally 10 μg/ml to 0.01 μg/ml).
Plates are removed from the packaging, leaving the membrane behind and intact. The membrane is set aside. Into each well is pipetted 31 μl of solution. For media controls and fugetaxis (chemorepellent) samples, Assay Medium is used. For chemoattraction samples, the appropriate dilution of agent in assay medium is used.
Using a sterile needle, all small bubbles present in each well are popped and the membrane is carefully placed onto the plate, starting at one side and slowly lowering the other edge onto the plate.
Then 29 μl is pipetted into each circle imprinted on the polycarbonate or polyester membrane. For media controls and chemoattraction samples, Assay Medium is used. For fugetaxis (chemorepellent) samples, the appropriate dilution of ligand in assay medium is used.
To each 29 uL aliquot above is added 2 μl of cells (40,000 cells). It is important to ensure that before beginning the cells are well suspended and that they are mixed. This mixing can be accomplished by agitating the tube between each addition.
The plate is then covered with the supplied lid and incubated 1-3 hours in a humidified incubator at 37° C. in 5% CO2. Following the incubation period, the liquid from the top of the plate is removed with a tissue or similar blotting material (e.g. a Kimwipe). The membrane is carefully removed from the top of the plate and discarded. […] Using a multichannel pipettor, each well of the microplate is rinsed with 25 μl Phosphate Buffered Saline (Mediatech #21-040-CV) and transferred to the same wells in the white microplate. Using a multichannel pipettor, 50 μl CellTiter-Glo Luminescent Cell Viability Assay (Promega #G7572) is added to each well and mixed.
The plate is read using the Perkin Elmer Victor^3V plate reader using the Large Aperture Luminescence setting at 8 mm height above the plate with a dwell time of 1 s to quantify the number of migrated cells.
The results reported reflect the net observed migratory response of the cells to the ligand and are not based on the definition of unimodal fugetaxins.

[10] = system: CD8+; assay: High throughput transmigration assay (Example 9), chemorepulsion; assay type: cell-based, human; conditions: mean of three donors at concentration of highest activity, range 0.00125-1.25 μM
Text: as §1, §2, §3, §4

[11] = system: T lymphocytes; assay: as above; assay type: cell-based, human; conditions: one donor, triplicate, ± SD
Text: as §1, §2, §3, §4

[12] = Neutrophils, mean of three donors at concentration of highest activity, range 0.00125-1.25 μM

CCL2: chemokine
Repellent Index [1]: 1.7
Repellent Index ([2]; range 0.00125-1.25 μM): 1.5

CCL13: chemokine
Repellent Index [1]: 2.6

CCL7: chemokine
Repellent Index [1]: 2.3

Elafin: elastase inhibitor (AQEPVKGPVSTKPGSCPIILIRCAMLNPPNRCLKDTDCPGIKKCCEGSCGMACFVPQ; UniProt P19957 61-117, looked up)
Repellent Index [3]: 1.3
Repellent Index [4, 12]: 2.0
Repellent Index ([4]; neutrophils, 0.00125 μM, one donor, triplicate, ± SD): 1.33 ± 0.28
Repellent Index ([4]; neutrophils, 0.0125 μM, one donor, triplicate, ± SD): 1.31 ± 0.29
Repellent Index ([4]; neutrophils, 0.125 μM, one donor, triplicate, ± SD): 1.48 ± 0.22
Repellent Index ([4]; neutrophils, 1.25 μM, one donor, triplicate, ± SD): 2.42 ± 0.52

Pam3CSK4 [reference compound]
Unimodal fugetaxin hit, Neutrophils [5]: +
Repellent Index [4, 12]: 4.9
Unimodal fugetaxin hit, CD8+ [6]: +
Unimodal fugetaxin hit, CD4+ [7]: +
Migratory Response [8]: chemorepulsion

Galectin-3: carbohydrate binding protein (galectin), full-length, purchased; accession P17931/BAA22164/NP_002297
Migratory Response [9]: chemorepulsion
Unimodal fugetaxin hit, Neutrophils [5]: +
chemotactic (chemoattractant) versus fugetactic (chemorepellent) response of neutrophils ([5]; neutrophils, 1 hour, FIGS. 3 and 4, at 10 uM where stated): almost three times as fugetactic (chemorepellent) as chemotactic (chemoattractant)
Repellent Index [10]: 1.3
Repellent Index [4, 12]: 1.6
Unimodal fugetaxin hit, CD8+ [6]: +
Unimodal fugetaxin hit, CD4+ [7]: +

HSP70: heat shock protein; accession AAA02807
Unimodal fugetaxin hit, Neutrophils [5]: +
Repellent Index ([11]; 0.00125 μM): 0.96 ± 0.13
Repellent Index ([11]; 0.0125 μM): 1.15 ± 0.24
Repellent Index ([11]; 0.125 μM): 1.65 ± 0.35
Repellent Index ([11]; 1.25 μM): 14.56 ± 0.61
Repellent Index [10]: 11.6
Repellent Index [3]: 4.9
Repellent Index [4, 12]: 8.8
Unimodal fugetaxin hit, CD4+ [7]: +
Migratory Response [8]: chemorepulsion

B1: S. typhimurium Flagellin: TLR ligand; accession M11332 (protein, UniProt P06179 2-495, looked up)
Flagellin: AQVINTNSLSLLTQNNLNKSQSALGTAIERLSSGLRINSAKDDAAGQAIANRFTANIKGLTQASRNANDGISIAQTTEGALNEINNNLQRVRELAVQSANSTNSQSDLDSIQAEITQRLNEIDRVSGQTQFNGVKVLAQDNTLTIQVGANDGETIDIDLKQINSQTLGLDTLNVQQKYKVSDTAATVTGYADTTIALDNSTFKASATGLGGTDQKIDGDLKFDDTTGKYYAKVTVTGGTGKDGYYEVSVDKTNGEVTLAGGATSPLTGGLPATATEDVKNVQVANADLTEAKAALTAAGVTGTASVVKMSYTDNNGKTIDGGLAVKVGDDYYSATQNKDGSISINTTKYTADDGTSKTALNKLGGADGKTEVVSIGGKTYAASKAEGHNFKAQPDLAEAAATTTENPLQKIDAALAQVDTLRSDLGAVQNRFNSAITNLGNTVNNLTSARSRIEDSDYATEVSNMSRAQILQQAGTSVLAQANQVPQNVLSLLR
Migratory Response [9]: chemorepulsion
Unimodal fugetaxin hit, Neutrophils [5]: +
Repellent Index ([4]; Neutrophils, mean of three donors at concentration of highest activity, range 0.01-10 μg/ml): 5.5
Unimodal fugetaxin hit, CD8+ [6]: +
Repellent Index ([2]; range 0.01-10 μg/ml): 1.7
Unimodal fugetaxin hit, CD4+ [7]: +

B2: CCL15: chemokine (protein, UniProt Q16663 22-113, looked up)
C-C motif chemokine 15: QFTNDAETELMMSKLPLENPVVLNSFHFAADCCTSYISQSIPCSLMKSYFETSSECSKPGVIFLTKKGRQVCAKPSGPGVQDCMKKLKPYSI
Repellent Index [1]: 1.4

B3: HSP25: heat shock protein; accession AAA37862 (protein, UniProt P14602 1-209, looked up)
Heat shock protein beta-1: MTERRVPFSLLRSPSWEPFRDWYPAHSRLFDQAFGVPRLPDEWSQWFSAAGWPGYVRPLPAATAEGPAAVTLAAPAFSRALNRQLSSGVSEIRQTADRWRVSLDVNHFAPEELTVKTKEGVVEITGKHEERQDEHGYISRCFTRKYTLPPGVDPTLVSSSLSPEGTLTVEAPLPKAVTQSAEITIPVTFEARAQIGGPEAGKSEQSGAK
Unimodal fugetaxin hit, Neutrophils [5]: +
Repellent Index [10]: 1.3
Repellent Index [4, 12]: 11.9

B4: CCL19: chemokine (protein, UniProt Q99731 22-98, looked up)
C-C motif chemokine 19: GTNDAEDCCLSVTQKPIPGYIVRNFHYLLIKDGCRVPAVVFTTLRGRQLCAPPDQPWVERIIQRLQRTSAKMKRRSS
Repellent Index [3]: 1.7
Repellent Index [4, 12]: 1.5
Repellent Index ([2]; range 0.00125-1.25 μM): 2.0

B5: HSP47 Human: heat shock protein; accession AAP35758 (protein, UniProt P50454 19-418, looked up)
Serpin H1: AEVKKPAAAAAPGTAEKLSPKAATLAERSAGLAFSLYQAMAKDQAVENILVSPVVVASSLGLVSLGGKATTASQAKAVLSAEQLRDEEVHAGLGELLRSLSNSTARNVTWKLGSRLYGPSSVSFADDFVRSSKQHYNCEHSKINFRDKRSALQSINEWAAQTTDGKLPEVTKDVERTDGALLVNAMFFKPHWDEKFHHKMVDNRGFMVTRSYTVGVMMMHRTGLYNYYDDEKEKLQIVEMPLAHKLSSLIILMPHHVEPLERLEKLLTKEQLKIWMGKMQKKAVAISLPKGVVEVTHDLQKHLAGLGLTEAIDKNKADLSRMSGKKDLYLASVFHATAFELDTDGNPFDQDIYGREELRSPKLFYADHPFIFLVRDTQSGSLLFIGRLVRPKGDKMRDEL
Repellent Index [10]: 1.4
Repellent Index [4, 12]: 1.4
Repellent Index ([2]; range 0.00125-1.25 μM): 1.5
Migratory Response [8]: chemorepulsion

B6: CXCL7: chemokine (protein, UniProt P02775 35-128, looked up)
Platelet basic protein: SSTKGQTKRNLAKGKEESLDSDLYAELRCMCIKTTSGIHPKNIQSLEVIGKGTHCNQVEVIATLKDGRKICLDPDAPRIKKIVQKKLAGDESAD
Repellent Index [4, 12]: 3.9
Repellent Index [1]: 1.4

B7: CCL8: chemokine (protein, UniProt P80075 24-99, looked up)
C-C motif chemokine 8: QPDSVSIPITCCFNVINRKIPIQRLESYTRITNIQCPKEAVIFKTKRGKEVCADPKERWVRDSMKHLDQIFQNLKP
Repellent Index [1]: 2.3
Repellent Index ([2]; range 0.00125-1.25 μM): 2.6
